Results on 17 molecules are retold here after patent US10111885B2, “Compositions and therapeutic methods for the treatment of complement-associated diseases” (Resverlogix Corp., priority 2015, dated 2018).

Test [1] has as its system C3 mRNA. Put plainly: Complement gene mRNA expression, TaqMan real-time PCR, Huh-7 cells. Format: cell-based, human. Particulars: Homo sapiens. From the text: (§1) In this example, mRNA levels from cultured cells were quantitated. The assay can be used to determine the effect of compound(s) on regulating mRNA levels, including those compounds in the present invention. Complement genes are expressed at high endogenous levels, but their expression can also be stimulated with various cytokines in inflammatory conditions. Experiments in this example target both basal and inflammatory complement gene expression. Compound mediated changes in gene expression and resulting mRNA levels are presented in Tables 2, 3 and 4 as well as FIGS. 1, 2, 3 and 4 below.
(§2) Huh-7 and HepG2 cells are liver-derived cell lines and are models for what can occur in the liver. Huh-7 cells (JCRB Cell Bank) were introduced to 96-well plates (^˜2.5×10^5 per well) in 100 μL DMEM containing 10% (v/v) FBS, 100 U/mL penicillin, 100 ug/mL streptomycin and 5 ug/mL plasmocin (all reagents from Gibco, except for the former, which was obtained from Invivogen). After 24 h, Huh-7 cells were treated with compounds in the same media formulation used for plating, and supplemented with 0.1% DMSO for the amount of time indicated in tables 2, 3, and 4. For select experiments, 24 h post-plating, cells were treated with cytokines and the compound of interest simultaneously, for a total treatment time of 48 h. Alternatively, 24 h after plating, cells were pre-treated with cytokines for 24 h before adding the compound of interest for 48 h. HepG2 cells (ATCC) were cultured in 96-well plates (^˜2.5×10^5 per well) in MEM containing 10% FBS, 1× non-essential amino acids, 1 mM sodium pyruvate, 2 mM L-glutamine, 100 U/mL penicillin, 100 ug/mL streptomycin and 5 ug/mL plasmocin. Serum amount was reduced to 0.5% for treatments with compound or cytokines. Timing of treatment of HepG2 cells with compounds and cytokines was as described for Huh-7 cells. Primary human hepatocytes (CellzDirect/Life Technologies) were plated in collagen coated 96-well plates at 70 000 cells/well, then overlaid with Matrigel™ as recommended by the supplier. Cells were treated with compounds of interest and/or cytokines for the indicated time points in the recommended media supplemented with 0.1% DMSO and 10% FBS (v/v). Cells were harvested by mRNA Catcher PLUS Kit (Life Technologies) followed by real-time PCR using the RNA UltraSense One-Step qRT-PCR System. The level of the mRNA of interest was measured by TaqMan real-time PCR relative to the endogenous control cyclophilin A in the same sample. Data were acquired using the ViiA-7 Real Time PCR System (Applied Biosystems).
(§3) Downregulation of expression of components of the complement cascade will result in reduced activity of the pathway and thus will constitute a positive result. Tables 2 and 3 list the concentration of compounds at which the level of the indicated mRNA is reduced by 50%, as well as the duration of treatment with compound. Table 4 lists the maximum reduction in the indicated mRNA measured in primary human hepatocytes treated with compounds for up to 72 hours. FIGS. 1, 2, 3 and 4 show effects of compounds on cytokine-induced (i.e. inflammatory) expression of complement genes in Huh-7 cells and HepG2 cells.

Test [2] concerns C4a/C4b mRNA. The description is as above. The class given is cell-based, human. Particulars: Homo sapiens.
Source text: as §1, §2, §3

Test [3] deals with C5 mRNA. Described as above. The class given is cell-based, human. Particulars: Homo sapiens; Huh-7, 48 h treatment; read-out: C5 (48 h) mRNA, half maximal inhibitory concentration (IC50).
Source text: as §1, §2, §3

Test [4] relates to erythrocyte lysis. Particulars: erythrocyte lysis animal model; cited from earlier work.
Test [5] relates to ex vivo perfused pig xenografts. Particulars: porcine-to-human kidney perfusion animal model; cited from earlier work.
For test [6] the following is noted: hereditary angioedema; cited from earlier work.
[7] abbreviates: Huh-7, 48 h treatment (Table 3), read-out: mRNA expression in Huh-7 cells: IC50 (uM), C3.
[8] abbreviates: Huh-7, 48 h treatment (Table 3), read-out: mRNA expression in Huh-7 cells: IC50 (uM), C4.
Where [9] appears, read: Huh-7, 48 h treatment, read-out: C3 (48 h) mRNA, half maximal inhibitory concentration (IC50).
Where [10] appears, read: Huh-7, 48 h treatment, read-out: C4a/C4b (48 h) mRNA, half maximal inhibitory concentration (IC50).

Read-outs that look alike come from different tables or passages of the source.

Turning to `COc1cc(OC)c2c(=O)[nH]c(-c3cc(C)c(O)c(C)c3)nc2c1` [RVX000206], the values for the IC50 in test [1] (setting [7]) and in test [2] (setting [8]) were 3.6 µM and 9.3 µM, respectively.
For `COc1cc(OC)c2c(=O)[nH]c(-c3ccc(N4CCN(C)CC4)cc3)nc2c1` [RVX000255, 5,7-dimethoxy-2-(4-(4-methylpiperazin-1-yl)phenyl)quinazolin-4(3H)-one], in that order: 20.4 µM and 17.4 µM.
Take `COc1cc(OC)c2c(=O)[nH]c(-c3cc(C)c(OCCN4CCCC4)c(C)c3)nc2c1` [RVX000297]: the IC50 in test [1] (setting [9]) was 4.7 µM; in test [3], greater than 10 µM; in test [2] (setting [10]) it was 4.5 µM.
As for `COc1cc(OC)c2c(=O)[nH]c(-c3cc(C)c(OCC(O)CO)c(C)c3)nc2c1` (stereo not drawn) [RVX000344], the IC50 in test [1] (setting [7]) stood at 11.6 µM; in test [2] (setting [8]) it was 15.6 µM.
Taken in the same sequence, the figures for `COc1cc(OCCN2CCCC2)cc(-c2nc3cc(OC)cc(OC)c3c(=O)[nH]2)c1` [RVX000641] were 12.6 µM and 9.3 µM.
For `COc1cc(OC)c2c(=O)[nH]c(-c3cc(C)c(OCCN4CCCC4)c(C)c3)nc2n1` [RVX000662], in that order: 29.2 µM and 21.1 µM.
Taken in the same sequence, the figures for `COc1cc(OC)c2c(=O)[nH]c(-c3ccc4[nH]c(CN(C)C)cc4c3)nc2c1` [RVX000668] were 9.5 µM and 15.6 µM.
For `COc1cc(OC)c2c(=O)[nH]c(-c3cc(C)c(OCCN4CCC(F)(F)C4)c(C)c3)nc2c1` [RVX000843], the results for the IC50 in test [1] (setting [7]) and in test [2] (setting [8]) were 11.1 µM and greater than 50 µM, respectively.
For `COc1cc(OC)c2c(=O)[nH]c(-c3cc(C)c(OCCNS(C)(=O)=O)c(C)c3)nc2c1` [RVX002093, N-(2-(4-(5,7-dimethoxy-4-oxo-3,4-dihydroquinazolin-2-yl)-2,6-dimethylphenoxy)ethyl)methanesulfonamide], in that order: 18.5 µM and 17.2 µM.
For `COc1cc(OC)c2c(=O)[nH]c(-c3cc(C)c(OCCNC(C)=O)c(C)c3)nc2c1` [RVX002101], in that order: 11.3 µM and 22 µM.
Taken in the same sequence, the figures for `COc1cc(OC)c2c(=O)[nH]c(-c3cc(C)c(OCCNC(=O)C(C)C)c(C)c3)nc2c1` [RVX002103] were 13.9 µM and 13.8 µM.
In the case of `COc1cc(OC)c2c(=O)[nH]c(-c3ccc(N4CCN(C(C)C)CC4)cc3)nc2c1` [RVX002109], the IC50 in test [1] (setting [9]) is 34.8 µM; in test [3], greater than 50 µM; in test [2] (setting [10]), 62.2 µM.
In the case of `COC(=O)NCCOc1c(C)cc(-c2nc3cc(OC)cc(OC)c3c(=O)[nH]2)cc1C` [RVX002113], the IC50 in test [1] (setting [7]) amounted to 5.8 µM; in test [2] (setting [8]), 7.8 µM.
As for `COc1cc(OC)c2c(=O)[nH]c(-c3cc(C)c(OCCNC(C)C)c(C)c3)nc2c1` [RVX002135], the IC50 in test [1] (setting [9]) is 2.2 µM; in test [3], 37.9 µM; in test [2] (setting [10]), 4.3 µM.
On to `COc1cc(OC)c2c(=O)[nH]c(-c3ccc(N4CCNCC4)cc3)nc2c1` [RVX002141], for which the results for the IC50 in test [1] (setting [7]) and in test [2] (setting [8]) were 15.4 µM and 17.8 µM, respectively.
Turning to `CC[C@H](C)[C@H](N)C(=O)N[C@H]1CSSC[C@@H](C(=O)N[C@H](C(N)=O)[C@@H](C)O)NC(=O)[C@H](CCCN=C(N)N)NC(=O)[C@H](Cc2cnc[nH]2)NC(=O)[C@H](Cc2cnc[nH]2)NC(=O)CNC(=O)[C@H](Cc2c[nH]c3ccccc23)NC(=O)[C@H](CC(=O)O)NC(=O)[C@H](CCC(N)=O)NC(=O)[C@H](C(C)C)NC(=O)[C@H](C(C)C)NC1=O` [compstatin], in test [4], the reduction of hemolysis was 50%. For the same molecule, in test [5], the graft survival entry is “prolonged graft survival”.

B1: Recombinant human C1INH: recombinant human C1 esterase inhibitor (protein, UniProt P05155 23-500, looked up)
Plasma protease C1 inhibitor: NPNATSSSSQDPESLQDRGEGKVATTVISKMLFVEPILEVSSLPTTNSTTNSATKITANTTDEPTTQPTTEPTTQPTIQPTQPTTQLPTDSPTQPTTGSFCPGPVTLCSDLESHSTEAVLGDALVDFSLKLYHAFSAMKKVETNMAFSPFSIASLLTQVLLGAGENTKTNLESILSYPKDFTCVHQALKGFTTKGVTSVSQIFHSPDLAIRDTFVNASRTLYSSSPRVLSNNSDANLELINTWVAKNTNNKISRLLDSLPSDTRLVLLNAIYLSAKWKTTFDPKKTRMEPFHFKNSVIKVPMMNSKKYPVAHFIDQTLKAKVGQLQLSHNLSLVILVPQNLKHRLEDMEQALSPSVFKAIMEKLEMSKFQPTLLTLPRIKVTTSQDMLSIMEKLEFFDFSYDLNLCGLTEDPDLQVSAMQHQTVLELTETGVEAAAASAISVARTLLVFEVQQPFLFVLWDQQHKFPVFMGRVYDPRA
On to B1, for which the “symptoms of repeat HAE attacks” value in test [6] is listed as “effective in improving symptoms”.
